{
  "source": "patent US4245106A",
  "about": "“Process for the preparation of 1-alkyl-3-aryl-4-pyrazolecarboxylates” (Monsanto Company, priority 1979, dated 1981); further: ranges in brackets are in %",
  "format_in_all_cases": "in vivo",
  "key": {"Bromus tectorum [1]": {"tested_on": "Bromus tectorum", "assay": "post-emergent herbicidal activity test", "description": "(§1) The post-emergent tests were conducted as follows. The active ingredients are applied in spray form to two or three-week old specimens of various plant species. The spray, a solution or wettable powder suspension containing the appropriate rate of active ingredient to give the desired test rate and a surfactant, is applied to the plants. The treated plants are placed in a greenhouse and unless otherwise noted approximately four weeks later the effects are observed and recorded."}, "Smartweed [2]": {"tested_on": "Smartweed", "assay": "post-emergent herbicidal activity test", "description": "as §1"}, "Johnsongrass [3]": {"tested_on": "Johnsongrass", "assay": "post-emergent herbicidal activity test", "description": "as §1"}, "Quackgrass [4]": {"tested_on": "Quackgrass", "assay": "post-emergent herbicidal activity test", "description": "as §1"}, "Lambsquarter [5]": {"tested_on": "Lambsquarter", "assay": "post-emergent herbicidal activity test", "description": "as §1"}, "Nutsedge [6]": {"tested_on": "Nutsedge", "assay": "post-emergent herbicidal activity test", "description": "as §1"}, "Velvetleaf [7]": {"tested_on": "Velvetleaf", "assay": "post-emergent herbicidal activity test", "description": "as §1"}, "Canada Thistle [8]": {"tested_on": "Canada Thistle", "assay": "post-emergent herbicidal activity test", "description": "as §1"}, "Barnyard grass [9]": {"tested_on": "Barnyard grass", "assay": "post-emergent herbicidal activity test", "description": "as §1"}, "Morningglory [10]": {"tested_on": "Morningglory", "assay": "post-emergent herbicidal activity test", "description": "as §1"}, "Cocklebur [11]": {"tested_on": "Cocklebur", "assay": "post-emergent herbicidal activity test", "description": "as §1"}, "Bromus tectorum [12]": {"tested_on": "Bromus tectorum", "assay": "pre-emergent herbicidal activity test", "description": "(§2) Table II summarizes results of tests conducted to determine the pre-emergent as well as the post-emergent herbicidal activity of the compounds. The pre-emergent test was conducted as follows:\n(§3) A good grade of top soil was placed in aluminum pans and compacted to a depth of three-eighths to one-half inch from the top of the pan. On the top of the soil was placed a predetermined number of seeds or vegetative propagules of various plant species. The soil required to level fill the pans after seeding or adding vegetative propagules was weighed into a pan. A known amount of the active ingredient applied in a solvent or as a wettable powder and the soil were thoroughly mixed, and used as a cover layer for prepared pans. After treatment the pans were moved into a greenhouse bench where they were watered from below as needed to give adequate moisture for germination and growth.\n(§4) A herbicial rating code was used to signify the extent of phytotoxicity of each species. The rating are defined as follows: […]"}, "Smartweed [13]": {"tested_on": "Smartweed", "assay": "pre-emergent herbicidal activity test", "description": "as §2, §3, §4"}, "Johnsongrass [14]": {"tested_on": "Johnsongrass", "assay": "pre-emergent herbicidal activity test", "description": "as §2, §3, §4"}, "Quackgrass [15]": {"tested_on": "Quackgrass", "assay": "pre-emergent herbicidal activity test", "description": "as §2, §3, §4"}, "Lambsquarter [16]": {"tested_on": "Lambsquarter", "assay": "pre-emergent herbicidal activity test", "description": "as §2, §3, §4"}, "Nutsedge [17]": {"tested_on": "Nutsedge", "assay": "pre-emergent herbicidal activity test", "description": "as §2, §3, §4"}, "Velvetleaf [18]": {"tested_on": "Velvetleaf", "assay": "pre-emergent herbicidal activity test", "description": "as §2, §3, §4"}, "Canada Thistle [19]": {"tested_on": "Canada Thistle", "assay": "pre-emergent herbicidal activity test", "description": "as §2, §3, §4"}, "Barnyard grass [20]": {"tested_on": "Barnyard grass", "assay": "pre-emergent herbicidal activity test", "description": "as §2, §3, §4"}, "Morningglory [21]": {"tested_on": "Morningglory", "assay": "pre-emergent herbicidal activity test", "description": "as §2, §3, §4"}, "Cocklebur [22]": {"tested_on": "Cocklebur", "assay": "pre-emergent herbicidal activity test", "description": "as §2, §3, §4"}, "[23]": {"settings": "11.2 Kg/Ha, approximately four weeks later"}, "[24]": {"settings": "*11.2 Kg/Ha, observed approximately 14 days after treatment"}, "[25]": {"settings": "11.2 Kg/Ha, approximately 28 days after seeding and treating"}},
  "data": [
    {"smiles": "CCOC(=O)c1cn(C)nc1-c1cccc(C(F)(F)F)c1", "note": "[Example 12]", "values": [
      {"measurement": "Post-Emergent herbicidal rating, J Bromus tectorum", "setting": "Bromus tectorum [1]; [23]", "result": "0 (0-24)"},
      {"measurement": "Post-Emergent herbicidal rating, J Bromus tectorum", "setting": "Bromus tectorum [1]; [24]", "result": "0 (0-24)"},
      {"measurement": "Post-Emergent herbicidal rating, F Smartweed", "setting": "Smartweed [2]; [23]", "result": "1 (25-49)"},
      {"measurement": "Post-Emergent herbicidal rating, F Smartweed", "setting": "Smartweed [2]; [24]", "result": "0 (0-24)"},
      {"measurement": "Post-Emergent herbicidal rating, I Johnsongrass", "setting": "Johnsongrass [3]; [23]", "result": "0 (0-24)"},
      {"measurement": "Post-Emergent herbicidal rating, I Johnsongrass", "setting": "Johnsongrass [3]; [24]", "result": "0 (0-24)"},
      {"measurement": "Post-Emergent herbicidal rating, H Quackgrass", "setting": "Quackgrass [4]; [23]", "result": "0 (0-24)"},
      {"measurement": "Post-Emergent herbicidal rating, H Quackgrass", "setting": "Quackgrass [4]; [24]", "result": "0 (0-24)"},
      {"measurement": "Post-Emergent herbicidal rating, E Lambsquarter", "setting": "Lambsquarter [5]; [23]", "result": "1 (25-49)"},
      {"measurement": "Post-Emergent herbicidal rating, E Lambsquarter", "setting": "Lambsquarter [5]; [24]", "result": "2 (50-74)"},
      {"measurement": "Post-Emergent herbicidal rating, G Nutsedge", "setting": "Nutsedge [6]; [23]", "result": "0 (0-24)"},
      {"measurement": "Post-Emergent herbicidal rating, G Nutsedge", "setting": "Nutsedge [6]; [24]", "result": "0 (0-24)"},
      {"measurement": "Post-Emergent herbicidal rating, C Velvetleaf", "setting": "Velvetleaf [7]; [23]", "result": "1 (25-49)"},
      {"measurement": "Post-Emergent herbicidal rating, C Velvetleaf", "setting": "Velvetleaf [7]; [24]", "result": "1 (25-49)"},
      {"measurement": "Post-Emergent herbicidal rating, A Canada Thistle", "setting": "Canada Thistle [8]; [23]", "result": "1 (25-49)"},
      {"measurement": "Post-Emergent herbicidal rating, A Canada Thistle", "setting": "Canada Thistle [8]; [24]", "result": "1 (25-49)"},
      {"measurement": "Post-Emergent herbicidal rating, K Barnyard grass", "setting": "Barnyard grass [9]; [23]", "result": "0 (0-24)"},
      {"measurement": "Post-Emergent herbicidal rating, K Barnyard grass", "setting": "Barnyard grass [9]; [24]", "result": "1 (25-49)"},
      {"measurement": "Post-Emergent herbicidal rating, D Morningglory", "setting": "Morningglory [10]; [23]", "result": "2 (50-74)"},
      {"measurement": "Post-Emergent herbicidal rating, D Morningglory", "setting": "Morningglory [10]; [24]", "result": "3 (75-99)"},
      {"measurement": "Post-Emergent herbicidal rating, B Cocklebur", "setting": "Cocklebur [11]; [23]", "result": "1 (25-49)"},
      {"measurement": "Post-Emergent herbicidal rating, B Cocklebur", "setting": "Cocklebur [11]; [24]", "result": "1 (25-49)"},
      {"measurement": "Pre-Emergent herbicidal rating, J Bromus tectorum", "setting": "Bromus tectorum [12]; [25]", "result": "1 (25-49)"},
      {"measurement": "Pre-Emergent herbicidal rating, J Bromus tectorum", "setting": "Bromus tectorum [12]; [24]", "result": "2 (50-74)"},
      {"measurement": "Pre-Emergent herbicidal rating, F Smartweed", "setting": "Smartweed [13]; [25]", "result": "3 (75-100)"},
      {"measurement": "Pre-Emergent herbicidal rating, F Smartweed", "setting": "Smartweed [13]; [24]", "result": "3 (75-100)"},
      {"measurement": "Pre-Emergent herbicidal rating, I Johnsongrass", "setting": "Johnsongrass [14]; [25]", "result": "0 (0-24)"},
      {"measurement": "Pre-Emergent herbicidal rating, I Johnsongrass", "setting": "Johnsongrass [14]; [24]", "result": "0 (0-24)"},
      {"measurement": "Pre-Emergent herbicidal rating, H Quackgrass", "setting": "Quackgrass [15]; [25]", "result": "0 (0-24)"},
      {"measurement": "Pre-Emergent herbicidal rating, H Quackgrass", "setting": "Quackgrass [15]; [24]", "result": "0 (0-24)"},
      {"measurement": "Pre-Emergent herbicidal rating, E Lambsquarter", "setting": "Lambsquarter [16]; [25]", "result": "3 (75-100)"},
      {"measurement": "Pre-Emergent herbicidal rating, E Lambsquarter", "setting": "Lambsquarter [16]; [24]", "result": "3 (75-100)"},
      {"measurement": "Pre-Emergent herbicidal rating, G Nutsedge", "setting": "Nutsedge [17]; [25]", "result": "0 (0-24)"},
      {"measurement": "Pre-Emergent herbicidal rating, G Nutsedge", "setting": "Nutsedge [17]; [24]", "result": "0 (0-24)"},
      {"measurement": "Pre-Emergent herbicidal rating, C Velvetleaf", "setting": "Velvetleaf [18]; [25]", "result": "3 (75-100)"},
      {"measurement": "Pre-Emergent herbicidal rating, C Velvetleaf", "setting": "Velvetleaf [18]; [24]", "result": "3 (75-100)"},
      {"measurement": "Pre-Emergent herbicidal rating, A Canada Thistle", "setting": "Canada Thistle [19]; [25]", "result": "0 (0-24)"},
      {"measurement": "Pre-Emergent herbicidal rating, A Canada Thistle", "setting": "Canada Thistle [19]; [24]", "result": "2 (50-74)"},
      {"measurement": "Pre-Emergent herbicidal rating, K Barnyard grass", "setting": "Barnyard grass [20]; [25]", "result": "3 (75-100)"},
      {"measurement": "Pre-Emergent herbicidal rating, K Barnyard grass", "setting": "Barnyard grass [20]; [24]", "result": "3 (75-100)"},
      {"measurement": "Pre-Emergent herbicidal rating, D Morningglory", "setting": "Morningglory [21]; [25]", "result": "3 (75-100)"},
      {"measurement": "Pre-Emergent herbicidal rating, D Morningglory", "setting": "Morningglory [21]; [24]", "result": "3 (75-100)"},
      {"measurement": "Pre-Emergent herbicidal rating, B Cocklebur", "setting": "Cocklebur [22]; [25]", "result": "0 (0-24)"},
      {"measurement": "Pre-Emergent herbicidal rating, B Cocklebur", "setting": "Cocklebur [22]; [24]", "result": "0 (0-24)"}
    ]}
  ]
}
